Results on two compounds are retold here after patent US20090088473A1, “METHOD FOR SCREENING OF PROSTAGLANDIN COMPOUNDS COMPRISING AN OPTIMAL FORMULATION FOR THE ENHANCEMENT OF HAIR GROWTH AND THE STIMULATION OF FOLLICULAR ANAGEN AND FORMULATIONS RESULTING THEREFROM” (CAYMAN CHEMICAL COMPANY, priority 2007, published 2009).

For the test, the target named is T1, human FP receptor (Homo sapiens, UniProt P43088).
T1 construct: expressed in transfected cells; host or cells: HEK 293 (stably transfected)
T1 sequence (P43088 whole entry): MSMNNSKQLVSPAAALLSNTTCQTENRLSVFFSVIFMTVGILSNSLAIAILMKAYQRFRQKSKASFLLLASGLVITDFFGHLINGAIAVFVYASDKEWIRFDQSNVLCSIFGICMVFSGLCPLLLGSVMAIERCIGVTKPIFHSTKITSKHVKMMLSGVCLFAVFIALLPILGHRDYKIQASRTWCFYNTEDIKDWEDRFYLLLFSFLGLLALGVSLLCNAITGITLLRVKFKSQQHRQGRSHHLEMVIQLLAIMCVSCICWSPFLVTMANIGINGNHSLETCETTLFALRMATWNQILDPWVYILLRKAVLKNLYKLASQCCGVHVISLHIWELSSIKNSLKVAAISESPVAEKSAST
Kind of test: Total intracellular inositol phosphate (InsP) accumulation in HEK 293 cells stably transfected with the human FP receptor. Format: cell-based. The note with it: FIG. 2; HEK 293 cells stably transfected with human FP receptor; free acid forms; rank among the prostaglandin analogs tested. The source says:
An exemplary assay method may be described that correlates the ability of test compounds (FP receptor agonists) to induce hair growth with the ability of an established FP receptor agonist, in this case Bimatoprost free acid, to activate the FP receptor. The dose-dependent release of Inositol triphosphate by test compounds compared to the dose-dependent response of Bimatoprost free acid, an established eye lash-enhancing compound, may provide a structure activity relationship that may be used to predict the degree to which a given compound will promote eye lash growth.

Each structure is given as a SMILES string.

As to `O=C(O)CCC/C=C\C[C@@H]1[C@@H](/C=C/[C@@H](O)COc2cccc(C(F)(F)F)c2)[C@H](O)C[C@@H]1O` [(+) fluprestonol], the “dose-dependent release of inositol triphosphate” value is “lowest”.

For the compound `O=C(O)CCCC=CCC1C(O)CC(O)C1C=CC(O)COc1ccccc1` (stereo not drawn) [16-phenoxy tetranor PGF2α analog, 16-phenoxy tetranor PGF2α], the “dose-dependent release of inositol triphosphate” value is listed as “highest”.
